A short description of the data set: Stability of the compound in liver microsomes (rat). The format is in vitro ADME, SD rat. As to conditions: 1 μM compound, 0.5 mg protein/mL. The procedure:
2.1.1. working solution: 5 μL of test or control compound stock solution (10 mM DMSO solution) was diluted with 495 μL of acetonitrile (ACN) to obtain an intermediate stock solution (100 μM, 99% ACN).
2.2.2 Preparation procedure: An appropriate amount of NADPH powder was weighed and diluted with 10 mM MgCl2 buffer (working solution concentration: 10 mM; final reaction system concentration: 1 mM).
2.3.2 Preparation procedure: The appropriate concentration of liver microsomal working solution was prepared in 100 mM potassium phosphate buffer;
Acetonitrile (ACN) solution at 4° C. containing 200 ng/mL of Tolbutamide and 200 ng/ml of labetalol as internal standards 2.5. Operation steps:
2.5.2. Diluting liver microsomes with 100 mM potassium phosphate buffer to a concentration of 0.56 mg/mL.
2.5.3. Transferring 445 μL of liver microsomal working solution (0.56 mg/mL) to pre-heated incubation plates T60 and NCF60, and then pre-heating the incubation plates T60 and NCF60 for 10 minutes at 37° C. with shaking. Transferring 54 μL of liver microsomes to each well of the blank plate, adding 6 μL of NAPDH coenzyme solution to the blank plate, and finally transferring 180 μL of termination solution to the blank plate.
2.5.4 Adding 5 μL of compound working solution (100 μM) to the incubation plates T60 and NCF60 containing liver microsomes and mixing three times.
2.5.5. Adding 50 μL of buffer to the NCF60 plate and mixing three times, starting the timer and incubating at 37° C. for 60 min with the plate shaking.
2.5.6. Adding 180 μL of quenching solution and 6 μL of NAPDH coenzyme working solution sequentially to quenching plate TO, making sure that the plate was cold to prevent volatilization of the incubation solution.
2.5.7. For plate T60, mixing well three times and immediately transferring 54 μL of mixing solution (0-min time point) to quenching plate TO, then adding 44 μL of NAPDH coenzyme working solution to incubation plate T60. Starting the timer:
2.5.8. At the 5, 15, 30, 45 and 60 minute time points, adding 180 μL of quenching solution to the quenching plate and transferring 60 μL of reaction solution from the T60 plate to the quenching plate at each time point.
2.5.9. For NCF60 plates, mixing well and transferring 60 μL of reaction solution from the NCF60 incubating solution to a quenching plate containing 180 μL of quenching solution at 60th minute.
2.5.10. All plates were mixed on a shaker for 10 min and then centrifuged at 4000 rpm at 4° C. for 20 min.
2.5.11. Transferring 80 μL of supernatant to 240 μL of HPLC water and mixing on a
2.6.1. Calculating t1/2 and Clint (mic) values based on first-order elimination kinetics: […]

Turning to `COc1c([C@H]2[C@H](C(=O)Nc3ccnc(C(N)=O)c3)O[C@@](C)(C(F)(F)F)[C@H]2C)ccc(F)c1F` [VX-548, reference compound], the half-life at 1 μM (Sprague-Dawley, rat, liver microsomes, 37° C., read-out: Rat liver microsomes T½) turned out to be 16.7 min. Moreover, under “T = 60 min”, the “Rat liver microsomes Residual (T = 60 min)” value is recorded as 8.5%.

Values taken from patent publication US20250296922A1, “POLYSUBSTITUTED PYRROLIDINE DERIVATIVE, PREPARATION METHOD THEREFOR AND USE THEREOF” (SHANGHAI WENNAI THERAPEUTICS CO LTD, priority 2023, published 2025).
